Where a SMILES comes first, the peptide text is derived from it. The star is where a group is joined. Cbz = O=C(OCc1ccccc1)*
Assays:
mutant FRBs = test: SeAP transcriptional switch assay, panel of FRB mutants at 2095, 2098, 2101; format: cell-based, human
Method: All FRB mutants were prepared by the Quikchange mutagenesis method (Stratagene) using protocols provided by the manufacturer. Briefly, PCR reactions containing the parent plasmid pBJ5-FRB-VP16-HA or pBJ5-FRB*-VP16-HA and overlapping oligonucleotides containing the relevant base changes were performed with Pfu polymerase (Stratagene, San Diego, Calif.). PCR reactions were digested with the methylation sensitive restriction endonuclease Dpn1 to eliminate the parent plasmid and the reaction was transformed in XL10-Gold Ultracompetent E. coli (Stratagene).
Electroporation details are available upon request. Cells were immediately aliquoted to 2 or 3×96 well plates with flat bottoms. […] Data was analysed with Softmax Pro (Molecular Devices), Microsoft Excel and Prism 3 (GraphPad Software).

GSK-3βFRB* = GSK-3βFRB* (UniProt P26883+P42345, K2095P/T2098L/W2101F); test: Inducible stabilization of GSK-3βFRB* in knock-in MEFs (Western blot); format: cell-based, mouse; set-up: The minimal FRB domain comprises amino acids 2025-2114 of human mTor; endogenous in cells; host or cells: MEFs from GSK-3β^FRB* knock-in mice (fusion expressed from the targeted endogenous locus); conditions: heterozygous MEFs; for GSK-3βFRB* stability when stabilization is reversed with FK506 in presence of protease inhibitor: inhibitor added 30 minutes before FK506, 9 h
Method: MEFs cell lines were prepared from E14.5-E16.5 embryos of indicated genotypes by eviscerating the embryos in HBSS, treating the remaining tissue with 0.2% collagenase and trypsin, and plating the cells in DMEM containing 10% FCS, antibiotics, and 0.1 mM β-mercaptoethanol. Once established, the MEFs were cultured using standard techniques and treated with various small molecules as indicated.
Western Blot analysis was carried out using cell lysates prepared in RIPA buffer (10 mM Tris pH 7.2, 150 mM NaCl, 0.1% SDS, 1% Triton X-100, 1% deoxycholate, 5 mM EDTA, protease inhibitor cocktail (Invitrogen Life Technologies)) and then separated using standard SDS/PAGE before being transferred to PVDF (Millipore) using standard Western blotting procedures. The anti-GSK-3β antibody, used at 1:2500, the anti-HSP-90 antibody, 1:2500, and the anti-FKBP12 antibody, 1:2500, were purchased from BD Transduction Labs. The anti-β-catenin antibody, 1:2000, and anti-HSP-70 antibody, 1:1000 were purchased from Santa Cruz Biotechnology. […] In all cases, Western blots were incubated overnight with the appropriate primary antibodies in TBST (10 mM Tris 8.0, 150 mM NaCl, 0.1% Tween-20) containing 10% dry milk, and then washed 3 times with TBST. The blots were subsequently incubated for 30 minutes with HRP-conjugated secondary antibodies from Jackson Immunoresearch, washed 3 more times with TBST, and then developed using standard ECL reagents (Amersham Biosciences) and Kodak XAR film.

FRB*Pax6 [1] = biological target: T1, FRB*Pax6 (UniProt P26883+P42345, K2095P/T2098L/W2101F); test: Stabilization of FRB*Pax6 in cortical neural cultures (Western blot); format: cell-based, mouse; conditions: replacement of MaRap after 36 hours; 500 nM after 200 nM MaRap
T1 construct: The minimal FRB domain comprises amino acids 2025-2114 of human mTor; from tissue; host or cells: e13.5 cortical neural cultures (A14) and cultured whole embryos (A15) from Pax6^FRB* knock-in mice; fusion expressed from the targeted endogenous locus
Description: e13.5 embryos were harvested from a Pax6^FRB*/+ intercross and cortical hemispheres isolated from individuals identified by eye and craniofacial morphology and later confirmed by genotype specific PCR. Pia were removed and neocortex dissected from […] in Hank's balanced salt solution (HBSS). Tissue was minced roughly and placed in centrifuge tubes containing HBSS+20% foetal calf serum. Tissue pieces were allowed to settle and the media was replaced first with HBSS+serum then HBSS alone. The tissue was incubated with 0.1% trypsin+2 mM EDTA 10 minutes at 37° C. then the reaction stopped with HBSS+serum. Cells were triturated to a suspension and plated on 24 well plates coated with matrigel in DMEM (high glucose) supplemented with FCS (5%), N2 (GIBCO) and antibiotics.
Extracts were prepared in RIPA buffer, protein quantified by Bradford Assay (Biorad) and 10 μg of total protein resolved by SDS-PAGE, transferred to PVDF (Millipore) filters and Pax6 or HSP90 identified with specific antibodies (1:1000, Covance and 1:2500 Transduction Laboratories, respectively) incubated 1 hour in TBS+10% nonfat milk. Secondary conjugated to horse radish peroxidase were purchased from Jackson immunochemicals and blots were developed by chemiluminescence (Amersham).

FRB*Pax6 [2] = biological target: T1, FRB*Pax6; test: Whole embryo culture, inducible stabilization of FRB*Pax6; set-up: species or system mouse
Method: Uterine horns were removed from sacrificed mothers to a petri dish containing Hank's Balanced Salt Solution (HBSS), fat was removed and the uterus cut up to isolate embryos. Individual deciduum were carefully removed from the uterus by carefully pulling apart the muscular layers in a fresh petri dish containing HBSS (sometimes supplemented with 2 mg/mL glucose) under a dissecting microscope. Embryos were removed by cutting along the lateral axis of the deciduum with fine forceps taking care not to puncture the embryonic membranes and teasing off the decidual layers overlying the embryo. Embryos were then separated from the remaining decidua at the ectoplacental cone or primitive placenta (depending on the age of the embryo).
Reichert's membrane was grasped without the underlying visceral yolk sac, carefully torn away from the embryo and trimmed back to the placenta without ripping the yolk sac. […] The bottle rotated slowly in a roller bottle chamber at 37° C. Drugs were added directly to the culture media at the commencement of the culture.
Embryos were fixed overnight in 4% paraformaldehyde/PBS then dehydrated through a staged ethanol series. Endogenous peroxidases were inactivated with 5% H2O2 for 4 hours in ethanol and the embryos were rehydrated. […] Embryos were washed in block 6 hours with 1 hour changes and incubated overnight at 4° C. with […] anti-mouse secondary. Embryos were washed with PBS+0.1% Triton X-100 4 times for 1 hour and developed with the DAB peroxidase kit from Vector laboratories.
Embryos were protected with a staged series to 30% sucrose in PBS after fixation in 4% PFA (60 minutes to overnight at 4° C.). Protected embryos were embedded in OCT (VWR) frozen and sectioned on a Leica cryostat to 10 μm. Thin sections were stained according to standard protocols (obtained upon request). Secondary antibodies were purchased from Molecular Probes (Eugene, Oreg.) and primary antibodies to neurofilament, Lim3, Nkx2.2, Pax6, En1, Isl1 were obtained from Dev. Studies. Additional antibodies were from Covance, Zymed or a generous gift of Tadashi Nomura and Noriko Osumi (Sendai, Japan). Immunofluorescence was visualized by confocal microscopy.

embryos = test: Overt effects on mother and embryos after IP injection of pregnant mice; format: in vivo, mouse; conditions: 10 mg/kg/day, similarly injected
Method: GSK-3β^+/FRB* mice were intercrossed and the date of vaginal plug observation was set as E0.5. At E9.5, the stage of embryonic development was confirmed by ultrasonography (Chang, C. P. et al. “Sonographic Staging of the Developmental Status of Mouse Embryos in Utero.” (2003) Published in Genesis 36, 7-11) and mice were weighed. Drug administration commenced at E10.0. […] 100 μL was immediately injected intraperitoneally (IP) to pregnant females with injections repeated twice more at 12 hour intervals to E11.5 when mice were sacrificed, and embryos and organs were dissected and frozen in […]. Tissues anterior to the embryonic forelimbs of individual embryos were used for preparation of protein extracts with the remainder used to determine the concentration of drug and for genotyping.

FRB = biological target: T2, FRB (Homo sapiens, UniProt P42345+P62942); test: SeAP reporter assay, dimerization of FRB-VP16 to FKBP3-GAL4DBD in COS-1 cells; format: cell-based; conditions: wild-type FRB(KTW)-VP16; ±95% confidence intervals
T2 construct: The minimal FRB domain comprises amino acids 2025-2114 of human mTor; expressed in transfected cells; host or cells: COS-1 cells, electroporated with pBJ5-FRBVP, pBJ5-GF3E and pG5IL2SX
Description: (§1) Transcription activation by recruitment of chimeric transcriptional activation and DNA binding domains is described. COS-1 cells were electroporated with […] each of the following expression plasmids (Ho, S. N., Biggar, S. R., Spencer, D. M., Schreiber, S. L., and Crabtree, G. R. “Dimeric ligands define a role for transcriptional activation domains in reinitiation.” (1996) Nature 382, 822-826): pG5IL2SX (drives transcription of bacterial secreted alkaline phosphatase (SeAP) through GAL4 DNA binding […] elements), pBJ5-GF3E (which expresses the GAL4 DNA binding domain fused to three copies of human FKBP12), and pBJ5-FRBVP. (which expresses a FRB fusion with the Herpes Simplex Virus VP16 Activation domain) A FRB*-VP16 fusion protein which consists of modified FRB protein fused to the VP16 activation domain was also used selectively. Transfected cells were distributed equally to 96 well plates and were incubated at 37° C. for 24 to 36 hours before media was supplemented with drug in a dilution curve in which each point is represented in quadruplicate. Cells were incubated at 37° C. for an additional 24 hours followed by a 2-hour treatment at 65° C. to inactivate endogenous phosphatases. Each well was supplemented with 100μL of 1 mM methylumbelliferylphosphate dissolved in 2 M diethanolamine buffered to pH 10.0 with carbonate and incubated at 37° C. for 16 hours. Fluorescence was measured with a Fluoroscan (ICN) plate reader at 355 nm transmission and 455 nm emission using Deltasoft software.
(§2) Drug efficacy was determined in a three-plasmid transcriptional switch reporter assay. ˜106 COS1 cells were coelectroporated with 2 μg of the DNA binding construct pBJ5-Gal4-FKBP(3), 2 μg pBJ5-VP16 (or the relevant mutant FRB) and 2 μg of the Gal4-SeAP reporter. Electroporation details are available upon request. […] SeAP activity was measured by fluorescence with a Spectamax M2 fluorometer (Molecular Devices, Sunnyvale, Calif.) with transmission set at 355 nm and emmission set at 460 nm. Data was analysed with Softmax Pro (Molecular Devices), Microsoft Excel and Prism 3 (GraphPad Software).

FRB* = biological target: T3, FRB* (Homo sapiens, UniProt P42345+P62942, K2095P/T2098L/W2101F); test: SeAP reporter assay, dimerization of FRB*-VP16 to FKBP3-GAL4DBD in COS-1 cells; format: cell-based; conditions: FRB*(PLF)-VP16; ±95% confidence intervals
T3 construct: The minimal FRB domain comprises amino acids 2025-2114 of human mTor; expressed in transfected cells; host or cells: COS-1 cells
Description: as §1, §2

GSK-3βFRB*, sequence (P42345 2025-2114 K2095P/T2098L/W2101F): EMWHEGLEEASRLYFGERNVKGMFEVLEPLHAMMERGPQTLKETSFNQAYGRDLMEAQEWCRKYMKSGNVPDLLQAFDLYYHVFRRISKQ
GSK-3βFRB*, sequence (P26883 2-108): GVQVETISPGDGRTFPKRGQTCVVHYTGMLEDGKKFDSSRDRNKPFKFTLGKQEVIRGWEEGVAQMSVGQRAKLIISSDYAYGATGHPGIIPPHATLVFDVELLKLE
T1 sequence (P42345 2025-2114 K2095P/T2098L/W2101F): as the sequence (P42345 2025-2114 K2095P/T2098L/W2101F) above
T1 sequence (P26883 2-108): as the sequence (P26883 2-108) above
T3 sequence (P42345 2025-2114 K2095P/T2098L/W2101F): as the sequence (P42345 2025-2114 K2095P/T2098L/W2101F) above
T3 sequence (P62942 whole entry, the tested form may be a part): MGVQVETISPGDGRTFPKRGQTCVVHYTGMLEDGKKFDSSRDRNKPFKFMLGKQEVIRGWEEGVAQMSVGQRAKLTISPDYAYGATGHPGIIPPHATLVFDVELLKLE
T2 sequence (P42345 2025-2114): as the sequence (P42345 2025-2114 K2095P/T2098L/W2101F) above, with P71K, L74T, F77W counted along it
T2 sequence (P62942 whole entry, the tested form may be a part): as the sequence (P62942 whole entry, the tested form may be a part) above

CO[C@H]1[C@@H](O)[C@H](C)C[C@H](C)/C=C/C=C/C=C(\C)[C@@H](c2c[nH]c3c(C)cccc23)C[C@@H]2CC[C@@H](C)[C@@](O)(O2)C(=O)C(=O)N2CCCC[C@H]2C(=O)O[C@H]([C@H](C)C[C@@H]2CC[C@@H](O)[C@H](OC)C2)C[C@H](O)[C@H](C)/C=C(\C)[C@H]1O [C16-(S)iRap, C16-(S)7-methylindolerapamycin, reference compound]
effectiveness against all mutants relative to C16-BSrap (mutant FRBs; all mutants): significantly less effective than C16-BSrap

CCOC(=O)[C@H]1O[C@@H]1C(=O)N[C@@H](CC(C)C)C(=O)NCCC(C)C [E-64D, reference compound]
GSK-3βFRB* stability when stabilization is reversed with FK506 in presence of protease inhibitor (GSK-3βFRB*): did not protect

CO[C@H]1C[C@@H](C)C/C(C)=C/[C@@H](CCOC(=O)NCc2ccccc2)C(=O)C[C@H](O)[C@@H](C)[C@@H](/C(C)=C/[C@@H]2CC[C@@H](O)[C@H](OC)C2)OC(=O)[C@@H]2CCCCN2C(=O)C(=O)[C@]2(O)O[C@H]1[C@@H](OC)C[C@H]2C [FK506M, reference compound]
time for GSK-3βFRB* to return to steady state low levels (GSK-3βFRB*; 300 nM after 100 nM C20-MaRap 36 h): less than 9 hours | time for stabilized FRB*Pax6 levels to drop to the basal level (FRB*Pax6 [1]): ≤ 6 h | differentiation of Lim3-positive somatic motor neurons after transient stabilization (FRB*Pax6 [2]; 24 hours MaRap then replacement with FK506M): fail to differentiate | FRB*Pax6 immunoreactivity after transient stabilization (FRB*Pax6 [2]; 24 hours MaRap then replacement with FK506M (5 μM) 24 hours, e9.5 embryos): loss of most of the FRB*Pax6 immunoreactivity

CC(C)C[C@@H](C=O)NC(=O)[C@H](CC(C)C)NC(=O)[C@H](CC(C)C)NC(=O)OCc1ccccc1 [MG132, reference compound] (Cbz-Leu-Leu-Leu-aldehyde)
GSK-3βFRB* stability when stabilization is reversed with FK506 in presence of protease inhibitor (GSK-3βFRB*): remained stable

CC(=O)N[C@@H](CSC(=O)[C@]1([C@@H](O)C(C)C)NC(=O)[C@H](C)[C@@H]1O)C(=O)O [lactacystin, reference compound]
GSK-3βFRB* stability when stabilization is reversed with FK506 in presence of protease inhibitor (GSK-3βFRB*): remained stable

CO[C@H]1C[C@@H]2CC[C@@H](C)[C@@](O)(O2)C(=O)C(=O)N2CCCC[C@H]2C(=O)O[C@H]([C@H](C)C[C@@H]2CC[C@@H](O)[C@H](OC)C2)CC(=O)[C@H](C)/C=C(\C)[C@@H](O)[C@@H](OC)C(=O)[C@H](C)C[C@H](C)/C=C/C=C/C=C/1C [rapamycin, reference compound]
effect on embryos (embryos): produced “flat-top” embryos

C16-(R)-methallylrapamycin [C16-MaRap]
EC50 (FRB): 273 ± 13.5 nM | EC50 (FRB*): 15.9 ± 1.5 nM

C16-(S)-3-Methylindole rapamycin [C16-iRap]
binding to FRB mutants with Trp 2101 Phe substitution, Leu at 2098 (mutant FRBs; Phe at 2101, Leu at 2098): fully rescues drug binding | binding to FRB mutants with Trp 2101 Phe substitution, Thr at 2098 (mutant FRBs; Phe at 2101, Thr at 2098): does not bind

Source: US20050214738A1, “Conditional allele system” (priority 2003, published 2005)
